Results reported in PMC6411751, “Use of machine learning to identify novel, behaviorally active antagonists of the insect odorant receptor co-receptor (Orco) subunit” (Scientific Reports, 2019).
Where a name gives a salt, the structure may show the parent alone.

Target: T1, Dmel\Or35a + Dmel\Orco (Drosophila melanogaster, UniProt Q9VNB5)
T1 construct: expressed in transfected cells; host or cells: Xenopus laevis oocytes
T1 sequence (Q9VNB5 1-486): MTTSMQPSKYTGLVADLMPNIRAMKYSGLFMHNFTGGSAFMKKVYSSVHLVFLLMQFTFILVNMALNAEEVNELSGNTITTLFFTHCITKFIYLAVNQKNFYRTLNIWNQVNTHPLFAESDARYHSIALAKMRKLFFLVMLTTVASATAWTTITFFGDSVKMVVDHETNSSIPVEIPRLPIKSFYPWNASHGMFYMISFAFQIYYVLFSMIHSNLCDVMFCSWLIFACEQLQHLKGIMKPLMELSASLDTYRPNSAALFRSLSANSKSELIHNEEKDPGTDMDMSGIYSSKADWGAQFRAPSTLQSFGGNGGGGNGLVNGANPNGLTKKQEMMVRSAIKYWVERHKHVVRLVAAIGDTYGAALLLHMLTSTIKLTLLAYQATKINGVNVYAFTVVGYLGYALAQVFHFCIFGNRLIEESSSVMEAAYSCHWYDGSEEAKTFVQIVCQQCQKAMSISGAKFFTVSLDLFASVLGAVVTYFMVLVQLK
T1 sequence (Q9V3Q2 1-409 partner): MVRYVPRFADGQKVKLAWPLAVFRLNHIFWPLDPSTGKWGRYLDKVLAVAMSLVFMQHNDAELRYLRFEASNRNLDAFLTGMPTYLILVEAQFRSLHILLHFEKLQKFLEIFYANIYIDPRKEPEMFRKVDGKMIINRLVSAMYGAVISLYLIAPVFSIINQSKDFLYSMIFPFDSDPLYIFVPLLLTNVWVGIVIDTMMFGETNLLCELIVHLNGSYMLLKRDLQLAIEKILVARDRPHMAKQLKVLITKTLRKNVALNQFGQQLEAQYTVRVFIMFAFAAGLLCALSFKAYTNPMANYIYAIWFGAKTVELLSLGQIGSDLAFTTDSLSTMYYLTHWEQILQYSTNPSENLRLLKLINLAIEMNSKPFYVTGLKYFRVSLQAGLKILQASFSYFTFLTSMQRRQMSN
Assay: Inhibition of heteromeric OR in oocytes (hexanol or OLC12 activation)
Assay type: cell-based
Conditions: for inhibition of odorant activation: 100 µM antagonist, 1 µM hexanol; for antagonism of OLC12 (Orco agonist) activation of heteromeric OR: 100 or 300 µM antagonist, 10 µM OLC12
Method: An automated parallel electrophysiology system (OpusExpress 6000 A, Molecular Devices) was used to record Orco agonist (OLC12) or odorant induced currents under two-electrode voltage clamp. Oocytes were perfused with ND96 (in mM: 96 NaCl, 2 KCl, 1 CaCl2, 1 MgCl2, 5 HEPES, pH 7.4). DMSO was used to prepare 1 M or 100 mM stock solutions of test compounds, which were then diluted in ND96 on the day of the experiment. Compounds were applied at a flow rate of 1.0 mL/min, with extensive washing in ND96 at 4.6 mL/min between applications. Micropipettes with resistances of 0.2–2.0 MΩ were filled with 3 M KCl. The holding potential was −70 mV. Current responses were filtered (4-pole, Bessel, low pass) at 20 Hz (−3 db) and sampled at 100 Hz. OpusXpress 1.1 software (Molecular Devices) was used to capture and store current responses.
To measure the ability of Orco antagonists to inhibit odorant activation, oocytes expressing heteromeric ORs (Orco + ORX) were exposed to a 30 sec application of odorant followed by a 20 min wash. Oocytes were then exposed to a 90 sec application of Orco antagonist, immediately followed by a 30 sec co-application of Orco antagonist and odorant. The current response to odorant in the presence of Orco antagonist was compared to the preceding response to odorant alone and represented as a percentage. This value was then normalized to the value obtained when the assay was run in the absence of antagonist (sham).
Figure S3. Effects of Orco antagonists on heteromeric ORs. […]
heteromeric complexes of odorant specificity subunits and Orco. The Orco antagonists tested were 3-isopropyl-6-methyl-catechol (3 I6 MC), a potent compound from the input training set, and two compounds id e ntified in Fig u re 4 an d Ta b le 1 : 2-tert-butyl-6-methylphenol (B MP ) and linalyl formate (LF) . These compounds were tested for antagonist activity against odorant activation of three ORs from Anopheles gambiae (Agam\Or28 + Agam\Orco, Agam\Or39 + A ga m\Orco, Agam\Or65 + A ga m\Orco), o ne O R fro m Culex quinquefasciatus, the southern house mosquito (Cq u i\Or21 + Cqui\Orco) an d on e O R f ro m Drosophila melanogaster (Dme l\Or35a + Dmel\Orco). Each OR was activated by its cognate odorant agonist applied at an approximate EC50 concentration. […]
SEM (n = 4). […] Statistical significance of the data in each panel was assessed by one-way analysis of variance followed by Dunnett’s multiple comparison test using the pre-normalized values for each antagonist compared to the values obtained in the sham recordings (*, p < 0 .0 5; **, p < 0. 01; ***, p < 0 . 00 1 ).

Compound: Cc1cccc(C(C)(C)C)c1O [BMP, 2-tert-butyl-6-methylphenol]
- inhibition of odorant activation: able to inhibit odorant activation
- antagonism of OLC12 (Orco agonist) activation of heteromeric OR: able to antagonize OLC12

Compound: C=CC(C)(CCC=C(C)C)OC=O (stereo not drawn) [LF, linalyl formate]
- inhibition of odorant activation: able to inhibit odorant activation
- antagonism of OLC12 (Orco agonist) activation of heteromeric OR: able to antagonize OLC12

Compound: Cc1ccc(C(C)C)c(O)c1O [3I6MC, 3-isopropyl-6-methyl catechol]
- inhibition of odorant activation: could inhibit odorant activation
- antagonism of OLC12 (Orco agonist) activation of heteromeric OR: could antagonize OLC12
